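Cells were grown in 96-well plates and exposed to each compound for 48 hours at five concentrations; endpoints were interpolated linearly between bracketing concentrations, or set to the highest concentration if not reached. The concentration for 50% growth inhibition is given as GI50.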 Activity calls are given as the source filed them. Cut-off read from the data, not from the text of the source: active = GI50 up to about 1.1 µM and inactive = higher.
Columns and labels:
Assay in all cases: inhibition of tumour cell growth, NCI panel, 48 h
[1] = test system: NCI-H23
[2] = test system: NCI/ADR-RES
[3] = test system: K562
[4] = test system: OVCAR-3
[5] = test system: SF-295
[6] = test system: IGROV-1
[7] = test system: RXF 393
[8] = test system: HOP-62
[9] = test system: HCC 2998
[10] = test system: SF-539
[11] = test system: M14
[12] = test system: MCF7
[13] = test system: SNB-75
[14] = test system: SK-MEL-2
[15] = test system: EKVX
[16] = test system: NCI-H460
[17] = test system: MOLT-4
[18] = test system: HOP-92
[19] = test system: BT-549
[20] = test system: HL-60

Measured: GI50

Cc1cccc2c(N)c3cccc(C(=O)NCC[N+](C)(C)Cc4ccccc4[N+](=O)[O-])c3nc12
active: [17] 1.09 µM
inactive: [1] 5.22 µM | [2] 8.67 µM | [3] 4.72 µM | [4] 18 µM | [5] 6.32 µM | [6] 5.78 µM | [7] 9.64 µM | [8] 7.48 µM | [9] 9.06 µM | [10] 7.94 µM | [11] 9.62 µM | [12] 4.35 µM | [13] 1.64 µM | [14] 25.8 µM | [15] 31.5 µM | [16] 2.24 µM | [18] 10 µM

CC1C2CC(CC2N)C1(C)C (stereo unspecified)
inactive: [19] > 100 µM | [1] > 100 µM | [3] > 100 µM | [4] > 100 µM | [5] > 100 µM | [6] > 100 µM | [8] > 100 µM | [9] > 100 µM | [10] > 100 µM | [11] > 100 µM | [12] > 100 µM | [13] > 100 µM | [20] > 100 µM | [15] > 100 µM | [16] > 100 µM | [17] > 100 µM | [18] > 100 µM

COc1ccc(NC2Oc3cc4c(cc3C(c3cccc(OC)c3OC)C2C)OCO4)cc1 (stereo unspecified)
inactive: [19] 13.5 µM | [1] 11.9 µM | [3] 4.21 µM | [4] 5.35 µM | [5] 3.73 µM | [6] 8.75 µM | [7] 3.72 µM | [8] 32.9 µM | [9] 43.5 µM | [10] 17.7 µM | [11] 6.04 µM | [12] 8.81 µM | [13] 5.06 µM | [20] 3.22 µM | [14] 5.3 µM | [15] 18.5 µM | [16] 5.86 µM | [17] 2.9 µM | [18] 3.32 µM

O=C1c2ccccc2C2=Cc3ccccc3C(O)N12 (stereo unspecified)
inactive: [1] > 100 µM | [2] > 100 µM | [3] 36.1 µM | [4] > 100 µM | [5] > 100 µM | [6] > 100 µM | [7] 26.2 µM | [8] > 100 µM | [9] > 100 µM | [10] > 100 µM | [11] > 100 µM | [12] > 100 µM | [13] 92.5 µM | [20] 26.2 µM | [14] > 100 µM | [15] > 100 µM | [16] > 100 µM | [17] 34 µM | [18] 41.3 µM

C(=N\c1ccc2c(c1)Cc1ccccc1-2)/c1ccccn1
inactive: [19] 81.8 µM | [1] 74.8 µM | [2] 91.2 µM | [3] 30.9 µM | [4] 61.7 µM | [5] > 100 µM | [6] > 100 µM | [7] > 100 µM | [8] > 100 µM | [11] > 100 µM | [13] 67.6 µM | [14] 43.3 µM | [15] 28.8 µM | [16] 60.3 µM | [17] 23 µM | [18] > 100 µM

N#CC1Nc2ccccc2[C@@H](O)C1O (stereo partly specified)
inactive: [1] > 100 µM | [2] > 100 µM | [3] > 100 µM | [4] > 100 µM | [5] > 100 µM | [6] > 100 µM | [7] > 100 µM | [8] > 100 µM | [9] > 100 µM | [10] > 100 µM | [11] > 100 µM | [12] > 100 µM | [13] > 100 µM | [20] > 100 µM | [14] > 100 µM | [15] > 100 µM | [16] > 100 µM | [17] > 100 µM | [18] > 100 µM

COc1ccc(C(c2cc(OC)c(OC)c(OC)c2)N2C(=O)CCC2C(=O)O)cc1 (stereo unspecified)
inactive: [1] 82.8 µM | [2] > 100 µM | [3] 43.8 µM | [4] 33.8 µM | [5] 24.3 µM | [6] 84.5 µM | [8] > 100 µM | [9] 50.2 µM | [10] 21.2 µM | [11] 38.3 µM | [12] 62.4 µM | [13] 59 µM | [20] 32 µM | [14] 46.8 µM | [15] > 100 µM | [16] 38.8 µM | [17] 72.6 µM | [18] > 100 µM
